In ChEMBL document CHEMBL1126954, “Synthesis and antimalarial activity of some 9-substituted artemisinin derivatives” (J Med Chem, 1993):
≈ marks a conversion by molar mass, not a printed value.

What was measured:
Type in all cases: functional, organism-based
[1] = tested on: Plasmodium falciparum; assay: In vitro antimalarial activity against Plasmodium falciparum D6 Sierra Leone
[2] = tested on: Plasmodium falciparum; assay: In vitro antimalarial activity against Plasmodium falciparum D6 Sierra Leone relative to artemisinin
[3] = tested on: Plasmodium falciparum; assay: In vitro antimalarial activity against Plasmodium falciparum W-2 (Indochina)
[4] = tested on: Plasmodium falciparum; assay: In vitro antimalarial activity relative to artemisinin against Plasmodium falciparum W-2 (Indochina)
[5] = tested on: Plasmodium falciparum; assay: In vitro antimalarial activity against Plasmodium falciparum D-6 Sierra Leone relative to artemisinin; Not active <= 5000 ng/mL
[6] = tested on: Plasmodium falciparum; assay: In vitro antimalarial activity against Plasmodium falciparum D6 (Sierra Leone); Not active <= 5000 ng/mL
[7] = tested on: Plasmodium falciparum; assay: In vitro antimalarial activity against Plasmodium falciparum W-2 (Indochina) relative to artemisinin; Not active at <5000 ng/mL
[8] = tested on: Plasmodium falciparum; assay: In vitro antimalarial activity relative to artemisinin against Plasmodium falciparum W2 (Indochina); Not active <= 5000 ng/mL

| SMILES | IC50 [1] [ng/mL] | IC50 ratio [2] | IC50 [3] [ng/mL] | IC50 ratio [4] | IC50 [5] | IC50 [6] | IC50 [7] | IC50 [8] | IC50 ([4]; Plasmodium falciparum) [ng/mL] |
| --- | --- | --- | --- | --- | --- | --- | --- | --- | --- |
| C=C1C2CC[C@@H](C)C3CC[C@@]4(C)OO[C@@]23[C@H](O[C@@H]1OO)O4 (stereo partly drawn) | 4.08 (≈ 0.0137 µM) | 2 | 8.12 (≈ 0.0272 µM) | 8 |  |  |  |  |  |
| C[C@@H]1CCC2[C@]34OO[C@](C)(CCC13)O[C@H]4OC(=O)[C@@]21CCN=N1 (stereo partly drawn) | 604 (≈ 1.87 µM) | 280 | 447 (≈ 1.39 µM) | 408 |  |  |  |  |  |
| C[C@@H]1CCC2[C@]34OO[C@](C)(CCC13)O[C@H]4OC(=O)[C@@]2(Br)CBr (stereo partly drawn) | 77 (≈ 0.175 µM) | 26 | 67 (≈ 0.152 µM) | 44 |  |  |  |  |  |
| C[C@@H]1CCC2[C@]34OO[C@](C)(CCC13)O[C@H]4O[C@H](OO)[C@@]21CO1 (stereo partly drawn) | 2.8 (≈ 0.00891 µM) | 1.3 | 4.5 (≈ 0.0143 µM) | 4.2 |  |  |  |  |  |
| C[C@@H]1CCC2[C@]34OO[C@](C)(CCC13)O[C@H]4OC(=O)[C@]21CO1 (stereo partly drawn) |  |  |  |  | Not Active | Not Active | Not Active | Not Active |  |
| CSC1=NN=C2C3CC[C@@H](C)C4CC[C@@]5(C)OO[C@@]34[C@H](OC2(O)S1)O5 (stereo partly drawn) | 789 (≈ 2.04 µM) | 305 | 564 (≈ 1.46 µM) | 429 |  |  |  |  |  |
| C[C@@H]1CCC2[C@]34OO[C@](C)(CCC13)O[C@H]4O[C@H](OO)[C@]21CO1 (stereo partly drawn) | 2 (≈ 0.00636 µM) | 0.9 | 4 (≈ 0.0127 µM) | 3.7 |  |  |  |  |  |
| C[C@@H]1CCC2[C@]34OO[C@](C)(CCC13)O[C@H]4OC(=O)[C@@]21CO1 (stereo partly drawn) | 96 (≈ 0.324 µM) | 48 | 124 (≈ 0.418 µM) | 123 |  |  |  |  |  |
| C[C@@H]1CCC2C(=O)C(=O)O[C@@H]3O[C@@]4(C)CCC1[C@@]23OO4 (stereo partly drawn) | 319 (≈ 1.13 µM) | 169 | 278 (≈ 0.985 µM) | 290 |  |  |  |  |  |
| C[C@@H]1CCC2C3(CC3)C(=O)O[C@@H]3O[C@@]4(C)CCC1[C@@]23OO4 (stereo partly drawn) | 10 (≈ 0.034 µM) | 5.2 | 8.6 (≈ 0.0292 µM) | 8.6 |  |  |  |  |  |
| C[C@@H]1CCC2[C@]34OO[C@](C)(CCC13)O[C@H]4OC(=O)[C@@]2(O)CO (stereo partly drawn) |  |  |  |  | Not Active | Not Active | Not Active | Not Active |  |
| C[C@@H]1CCC2[C@@]3(CO3)C(O)O[C@@H]3O[C@@]4(C)CCC1[C@@]23OO4 (stereo partly drawn) | 1.8 (≈ 0.00603 µM) | 0.9 | 3.4 (≈ 0.0114 µM) | 3.4 |  |  |  |  |  |
| C[C@@H]1CCC2[C@H](O)[C@H](O)O[C@@H]3O[C@@]4(C)CCC1[C@@]23OO4 (stereo partly drawn) | 7.3 (≈ 0.0255 µM) | 3.8 | 7.4 (≈ 0.0258 µM) | 7.6 |  |  |  |  |  |
| C/C=C1\C(=O)O[C@@H]2O[C@@]3(C)CCC4[C@H](C)CC[C@@H]1[C@]42OO3 (stereo partly drawn) | 2.1 (≈ 0.00713 µM) | 1.1 | 2.3 (≈ 0.00781 µM) | 2.3 |  |  |  |  |  |
| C=C1C2CC[C@@H](C)C3CC[C@@]4(C)OO[C@@]23[C@H](O[C@@H]1O)O4 (stereo partly drawn) | 119 (≈ 0.421 µM) | 63 | 232 (≈ 0.822 µM) | 242 |  |  |  |  |  |
| C[C@@H]1CC[C@H]2[C@@H](C)C(=O)O[C@@H]3O[C@@]4(C)CC[C@@H]1[C@]32OO4 [ARTEMISININ] | 1.89 (≈ 0.00669 µM) | 1 | 0.95 (≈ 0.00336 µM) |  |  |  |  |  | 1 (≈ 0.00354 µM) |
| C=C1C(=O)O[C@@H]2O[C@@]3(C)CC[C@H]4[C@H](C)CC[C@@H]1[C@@]24OO3 [ARTEMISITENE] | 5.3 (≈ 0.0189 µM) | 2.8 | 7.44 (≈ 0.0265 µM) | 7.8 |  |  |  |  |  |
